Measured values as given in patent US10006089B2, “MCL-1 as a therapeutic target in SCFFBW7 deficient neoplasm” (Beth Israel Deaconess Medical Center, Inc., priority 2011, dated 2018).
“Also recorded” adds a separate entry of the source. Where a SMILES comes first, the peptide text is derived from it. The star is where a group is joined. Cbz = O=C(OCc1ccccc1)*

How the values were obtained:
Format in all cases: cell-based, human
T-ALL cell lines [1] = assay: Cell viability assay (CellTiter-Glo) of T-ALL cell lines; details: for sensitivity of Fbw7-deficient T-ALL cell lines compared with wild-type Fbw7 lines (cell viability): 0.5% FBS-containing medium, FIG. 13g; for sensitivity of Fbw7-deficient T-ALL cell lines (cell viability): 10% FBS-containing medium, FIG. 12a; for resistance of Fbw7-deficient T-ALL cell lines compared with wild-type Fbw7 lines to apoptotic stimuli (cell viability): FIG. 13c-f; for resistance after re-introduction of 3A-Mcl-1: FIG. 14e-f
Experimental: (§1) Cell culture including synchronization and transfection has been described^6,28. Wild type and Fbw7−/− DLD1 cell lines were kind gifts from Dr. Bert Vogelstein. Murine T-ALL cell lines derived from Tall transgenic mice were kind gifts from Dr. Michele A. Kelliher. Human T-ALL cell lines were previously described^2. Loucy and CMLT1 T-ALL cell lines were obtained from Jon Aster. For various assays described below, T-ALL cells were cultured in either 0.5% FBS or 10% FBS-containing medium for sorafenib (Alexis Biochemicals) or ABT-737 (Symansis) treatment. In the case of combined treatment with both sorafenib and ABT-737, T-ALL cells were maintained in 10% FBS-containing medium. Lentiviral shRNA virus packaging, retrovirus packaging, and subsequent infections were performed as described previously^28. For cell viability assays, cells were plated at 10,000 per well in 96-well plates, and incubated with the appropriate medium containing sorafenib, ABT-737 or DMSO for 48 h. Assays were performed with CellTiter-Glo Luminescent Cell Viability Assay kit according to the manufacturer's instructions (Promega). For detection of apoptosis, cells treated with various drugs were stained with propidium iodide (Roche), or co-stained with Annexin V-PE and 7-amino-actinomycin D (Annexin V-PE Apoptosis Detection Kit I, BD Bioscience) according to the manufacturer's instructions. Stained cells were sorted with Dako-Cytomation MoFlos sorter (Dako) at the Dana-Farber Cancer Institute FACS core facility.

T-ALL cell lines [2] = assay: 7-AAD/Annexin V double-staining FACS analysis of apoptosis; details: 48 hours; for effect of sorafenib on ABT-737 sensitivity (apoptosis by FACS): sorafenib and/or ABT-737, 10% FBS
Experimental: as §1

Mcl-1 [3] = assay: Protein degradation analysis of Myc-Mcl-1 in transfected 293T cells; details: 293T cells transfected with Myc-Mcl-1, HA-Fbw7, HA-GSK3, FIG. 9a
Experimental: Cells were transfected with Myc-Mcl-1 along with HA-Fbw7, or Flag-β-TRCP1, and GFP as a negative control, in the presence or absence of HA-GSK3 and/or HA-ERK1. For half-life studies, cycloheximide (20 μg/ml, Sigma) was added to the media 40 h post-transfection. At various time points thereafter, cells were lysed and protein abundances were measured by immunoblot analysis.

Mcl-1 [4] = assay: Immunoblot analysis of Mcl-1 expression in T-ALL cell lines; details: 0.5% FBS-containing medium, FIG. 13h
Experimental: Cells were lysed in EBC (50 mM Tris pH 8.0, 120 mM NaCl, 0.5% NP-40) buffer supplemented with protease inhibitors (Complete Mini, Roche) and phosphatase inhibitors (phosphatase inhibitor cocktail set I and II, Calbiochem). The protein concentrations of the lysates were measured using the Bio-Rad Bradford protein assay reagent on a Beckman Coulter DU-800 spectrophotometer. The lysates were then resolved by SDS-PAGE and immunoblotted with the indicated antibodies. For immunoprecipitation, 800 μg lysates were incubated with the appropriate antibody (1-2 μg) for 3-4 h at 4° C. followed by one-hour incubation with Protein-A Sepharose beads (GE Healthcare). Immuno-complexes were washed five times with NETN buffer (20 mM Tris, pH 8.0, 100 mM NaCl, 1 mM EDTA and 0.5% NP-40) before being resolved by SDS-PAGE and immunoblotted with the indicated antibodies. Quantification of the immunoblot band intensity was performed with Image J software.

**Q.** With `CN(C)CC[C@H](CSc1ccccc1)Nc1ccc(S(=O)(=O)NC(=O)c2ccc(N3CCN(Cc4ccccc4-c4ccc(Cl)cc4)CC3)cc2)cc1[N+](=O)[O-]` [ABT-737] as the compound, how does the “sensitivity of Fbw7-deficient T-ALL cell lines compared with wild-type Fbw7 lines (cell viability)” value (T-ALL cell lines [1]; 48 hours) read?
**A.** resistant

**Q.** And the “sensitivity of Fbw7-deficient T-ALL cell lines (cell viability)” value (T-ALL cell lines [1]; 48 hours)?
**A.** resistant

**Q.** What about the “resistance after re-introduction of wild-type or 3A-Mcl-1” value (T-ALL cell lines [1]; DND41 cells, 10% FBS, 48 hours, FIG. 14b) of the same compound?
**A.** increase in resistance

**Q.** And the “ABT-737 sensitivity after re-introduction of wild-type Fbw7” value (T-ALL cell lines [1]; Fbw7-deficient CMLT1 cells, 10% FBS, 48 hours, FIG. 14a)?
**A.** partially restored its sensitivity

**Q.** And the “ABT-737 sensitivity after depletion of endogenous Mcl-1” value (T-ALL cell lines [1]; Fbw7-deficient T-ALL cell lines, shMcl-1, 10% FBS, 48 hours, FIG. 12c)?
**A.** restored ABT-737 sensitivity

**Q.** What about the “ABT-737-induced apoptosis in Fbw7-deficient T-ALL cells” value (T-ALL cell lines [2]; 10% FBS, FIG. 13j, also immunoblots of apoptotic biomarkers FIG. 12b) of the same compound?
**A.** impaired

**Q.** Which “effect on Fbw7/GSK3-mediated Mcl-1 destruction” value (Mcl-1 [3]) does the source give for `CC(C)C[C@@H](C=O)NC(=O)[C@H](CC(C)C)NC(=O)[C@H](CC(C)C)NC(=O)OCc1ccccc1` [MG132] (Cbz-Leu-Leu-Leu-aldehyde) here?
**A.** blocked

**Q.** How did the “resistance of Fbw7-deficient T-ALL cell lines compared with wild-type Fbw7 lines to apoptotic stimuli (cell viability)” value (T-ALL cell lines [1]) turn out when `COC(=O)Nc1nc2ccc(C(=O)c3cccs3)cc2[nH]1` [Nocodazole] was run?
**A.** more resistant

**Q.** How did the “resistance after re-introduction of 3A-Mcl-1” value (T-ALL cell lines [1]; DND41 cells) turn out when `CC(=O)O[C@H]1C(=O)[C@@]2(C)[C@H]([C@H](OC(=O)c3ccccc3)[C@]3(O)C[C@H](OC(=O)[C@H](O)[C@@H](NC(=O)c4ccccc4)c4ccccc4)C(C)=C1C3(C)C)[C@]1(OC(C)=O)CO[C@@H]1C[C@@H]2O` [Taxol] was run?
**A.** increase in resistance

**Q.** And the “resistance of Fbw7-deficient T-ALL cell lines compared with wild-type Fbw7 lines to apoptotic stimuli (cell viability)” value (T-ALL cell lines [1])?
**A.** more resistant

**Q.** How did the “resistance after re-introduction of 3A-Mcl-1” value (T-ALL cell lines [1]; DND41 cells) turn out when `CC[C@@]1(O)C(=O)OCc2c1cc1n(c2=O)Cc2cc3ccccc3nc2-1` [camptothecin] was run?
**A.** increase in resistance

**Q.** What about the “resistance of Fbw7-deficient T-ALL cell lines compared with wild-type Fbw7 lines to apoptotic stimuli (cell viability)” value (T-ALL cell lines [1]) of the same compound?
**A.** more resistant

**Q.** With `COc1cc([C@@H]2c3cc4c(cc3[C@@H](O[C@@H]3O[C@@H]5CO[C@@H](C)O[C@H]5[C@H](O)[C@H]3O)[C@H]3COC(=O)[C@H]23)OCO4)cc(OC)c1O` [etoposide] as the compound, how does the “resistance of Fbw7-deficient T-ALL cell lines compared with wild-type Fbw7 lines to apoptotic stimuli (cell viability)” value (T-ALL cell lines [1]) read?
**A.** more resistant

**Q.** What about the “sensitivity to induced apoptosis after re-introduction of wild-type Fbw7” value (T-ALL cell lines [1]; Fbw7-deficient HPB-ALL and JRT3-T3.5 cells, FIG. 14d) of the same compound?
**A.** partially restored their sensitivity

**Q.** For `CNC(=O)c1cc(Oc2ccc(NC(=O)Nc3ccc(Cl)c(C(F)(F)F)c3)cc2)ccn1` [sorafenib], which “effect on Mcl-1 expression” value (Mcl-1 [4]) is on record?
**A.** effectively reduce Mcl-1 expression

**Q.** What about the “sensitivity of Fbw7-deficient T-ALL cell lines compared with wild-type Fbw7 lines (cell viability)” value (T-ALL cell lines [1]; 48 hours) of the same compound?
**A.** more sensitive

**Q.** And the “sensitivity of Fbw7-deficient T-ALL cell lines (cell viability)” value (T-ALL cell lines [1]; 48 hours)?
**A.** more sensitive

**Q.** And the “effect of sorafenib on ABT-737 sensitivity (cell viability)” value (T-ALL cell lines [1]; Fbw7-deficient HPB-ALL cells, combined with ABT-737, 10% FBS, 48 hours, FIG. 14g)?
**A.** dose-dependent increase of ABT-737 sensitivity; also recorded: restored ABT-737 sensitivity

**Q.** What about the “effect of sorafenib on ABT-737 sensitivity (apoptosis by FACS)” value (T-ALL cell lines [2]; Fbw7-deficient CMLT1 and JRT3-T3.5 cells, FIG. 14h) of the same compound?
**A.** restored ABT-737 sensitivity

**Q.** And the “effect of sorafenib on ABT-737 sensitivity (apoptosis by FACS)” value (T-ALL cell lines [2]; Fbw7-deficient HPB-ALL cells, FIG. 12e)?
**A.** significant increase in the induction of apoptosis; also recorded: restores ABT-737 sensitivity
